Legend:
[1] = target: T1, ENaC (Epithelial Sodium Channel) (Mus musculus, UniProt Q61180+Q9WU38+Q9WU39); experiment: Ussing Chamber assay (short circuit current, amiloride sensitive I_SC); format: cell-based; settings: Mouse kidney M-1 cells, apical application, 37° C.
T1 construct: Mouse kidney M-1 cells were cultivated in DMEM; endogenous in cells; host or cells: mouse kidney M-1 cells (cortical collecting duct line), no transfection mentioned
T1 sequence (Q61180 1-699): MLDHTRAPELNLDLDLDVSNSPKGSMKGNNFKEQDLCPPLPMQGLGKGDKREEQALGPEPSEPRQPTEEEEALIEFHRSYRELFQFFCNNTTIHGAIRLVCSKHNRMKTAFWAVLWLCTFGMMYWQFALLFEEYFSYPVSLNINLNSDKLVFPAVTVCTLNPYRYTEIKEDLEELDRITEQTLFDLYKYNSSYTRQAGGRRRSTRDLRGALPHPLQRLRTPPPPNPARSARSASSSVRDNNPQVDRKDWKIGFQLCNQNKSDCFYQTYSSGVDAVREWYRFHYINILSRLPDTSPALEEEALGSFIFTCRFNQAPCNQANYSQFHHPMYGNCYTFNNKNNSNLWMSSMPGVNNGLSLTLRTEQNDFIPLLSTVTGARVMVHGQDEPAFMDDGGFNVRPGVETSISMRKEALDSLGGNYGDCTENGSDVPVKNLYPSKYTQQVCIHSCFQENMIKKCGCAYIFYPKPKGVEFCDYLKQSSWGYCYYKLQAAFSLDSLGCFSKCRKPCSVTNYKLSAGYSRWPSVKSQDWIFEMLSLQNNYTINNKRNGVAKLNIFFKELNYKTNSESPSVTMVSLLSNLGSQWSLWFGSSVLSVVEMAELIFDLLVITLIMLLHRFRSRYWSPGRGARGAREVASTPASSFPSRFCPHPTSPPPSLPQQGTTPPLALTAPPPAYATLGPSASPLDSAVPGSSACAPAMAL
T1 sequence (Q9WU38 1-638): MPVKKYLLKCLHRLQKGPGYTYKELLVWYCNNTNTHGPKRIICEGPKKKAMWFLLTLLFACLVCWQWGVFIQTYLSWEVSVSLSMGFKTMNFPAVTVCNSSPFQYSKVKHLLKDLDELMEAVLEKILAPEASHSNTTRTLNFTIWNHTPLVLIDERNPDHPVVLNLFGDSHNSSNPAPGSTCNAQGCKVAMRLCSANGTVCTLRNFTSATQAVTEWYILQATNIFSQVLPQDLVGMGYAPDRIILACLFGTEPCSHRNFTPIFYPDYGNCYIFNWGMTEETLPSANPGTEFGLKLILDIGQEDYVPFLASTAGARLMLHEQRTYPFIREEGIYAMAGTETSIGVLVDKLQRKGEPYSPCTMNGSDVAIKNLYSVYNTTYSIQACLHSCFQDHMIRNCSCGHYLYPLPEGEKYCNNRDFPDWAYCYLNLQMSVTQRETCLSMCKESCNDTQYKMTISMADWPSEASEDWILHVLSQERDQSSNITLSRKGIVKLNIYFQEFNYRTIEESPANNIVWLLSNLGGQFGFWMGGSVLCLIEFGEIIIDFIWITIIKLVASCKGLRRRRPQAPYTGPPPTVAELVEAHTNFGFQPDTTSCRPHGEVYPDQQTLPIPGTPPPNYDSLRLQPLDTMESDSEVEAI
T1 sequence (Q9WU39 1-655): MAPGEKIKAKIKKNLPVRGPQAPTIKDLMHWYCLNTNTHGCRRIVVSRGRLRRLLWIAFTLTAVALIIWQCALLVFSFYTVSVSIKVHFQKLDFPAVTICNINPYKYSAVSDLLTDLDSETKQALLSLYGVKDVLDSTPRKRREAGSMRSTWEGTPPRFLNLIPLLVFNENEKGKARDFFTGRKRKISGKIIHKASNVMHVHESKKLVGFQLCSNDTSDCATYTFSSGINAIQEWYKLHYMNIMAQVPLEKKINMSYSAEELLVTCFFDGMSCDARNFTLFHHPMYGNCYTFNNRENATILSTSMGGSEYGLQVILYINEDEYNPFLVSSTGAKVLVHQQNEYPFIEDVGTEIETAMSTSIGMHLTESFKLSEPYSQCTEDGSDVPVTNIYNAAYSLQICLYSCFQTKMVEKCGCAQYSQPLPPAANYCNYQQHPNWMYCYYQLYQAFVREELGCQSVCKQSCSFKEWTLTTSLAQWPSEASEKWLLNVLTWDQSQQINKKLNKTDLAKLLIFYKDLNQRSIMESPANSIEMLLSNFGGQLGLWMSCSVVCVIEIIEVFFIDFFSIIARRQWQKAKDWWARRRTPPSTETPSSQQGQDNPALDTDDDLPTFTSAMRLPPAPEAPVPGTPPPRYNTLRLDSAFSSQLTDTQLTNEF
Protocol: The IC50 values of the example compounds given above were determined in the Ussing Chamber assay. Ussing Chamber: Mouse kidney M-1 cells were cultivated in DMEM containing 5% FCS and 5 μM dexamethasone for 10 to 12 days on polyester transwell filters. Filters were inserted into a teflon-coated well-plate which fit into the ussing chamber system. Prior to measurement the medium of M-1 cells was replaced with Caco-2 transport buffer (Invitrogen, Germany). During measurements, the Ussing chamber temperature was kept at 37° C. Short circuit currents (I_sc) were measured in the voltage-clamp mode with the software package Lab View for data acquisition and analysis. The transepithelial electrical resistance (TEER) was determined by the application of voltage steps of ±5 mV every 5 sec. Compounds were administered at a final concentration of 3 μM or at increasing concentrations (1-3-10 μM) to the apical solution. At the end of each experiment the amiloride sensitive I_SC was measured by adding 3 μM amiloride to the apical compartment. Results are expressed as inhibition in percent of the amiloride effect or as IC50.

[2] = Permeability in CALU-3 cells; format: in vitro ADME; settings: human, CALU-3 monolayers, pH 7.4, 37° C., 10 μM compound; for Papp A→B at 90 min, 10 μM: apical-to-basal; for Papp B→A at 90 min, 10 μM: basal-to-apical
Protocol: Permeability measurements across polarized, confluent CALU-3 cell monolayers grown on permeable filter supports are used to provide information on the potential of a compound to pass the lung epithelium. Apparent permeability coefficients (Papp) of the compounds across the CALU-3 cell monolayers are measured (pH 7.4, 37° C.) in apical-to-basal (AB) and basal-to-apical (BA) transport direction. […] CALU-3 cells (1-2×10^5 cells/1 cm^2 area) are seeded on filter inserts (Costar transwell polycarbonate filters, 0.4 μm pore size) and cultured (for 10-12 days DMEM) until tight monolayers are formed. Compounds of interest are dissolved in appropriate solvent (DMSO, 10 mM stock solution). Stock solutions are diluted with HTP-4 buffer (128.13 mM NaCl, 5.36 mM KCl, 1 mM MgSO4, 1.8 mM CaCl2, 4.17 mM NaHCO3, 1.19 mM Na2HPO4×7H2O, 0.41 mM NaH2PO4×H2O, 15 mM HEPES, 20 mM glucose, 0.25% BSA, pH 7.4) to prepare the transport solutions (10 μM compound, final DMSO<=0.5%). The transport solution (TL) is applied to the apical or basolateral donor side for measuring A-B or B-A permeability (3 filter replicates), respectively. The receiver side contains the same buffer as the donor side. After 30 min of accommodation, samples are collected at the start t0=0 min and at the end of the experiment tn=90 min from the donor and at 0, 30, 60, and 90 min also from the receiver chamber. Volume removed is replenished by HTP-4 buffer. The compound concentration in the samples is measured by HPLC-MS/MS or scintillation counting. The permeability coefficient (Papp) and efflux ratio are calculated according to: Papp [cm/s]=(concentration receiver [nM]*volume receiver [mL]/time interval [sec])*(1/filter area)*(1/donor concentration [nM]).

Structure (SMILES): CCn1c(CNC(=O)c2nc(Cl)cnc2N)[n+](CC)c2ccc(OCC(=O)N(Cc3nc(C)ccc3O)C[C@H](C)O)cc21.O=C([O-])C(F)(F)F [Example 2.05]
- IC50 [1]: 3 nM
- Papp A→B at 90 min, 10 μM [2]: 0.4 ×10⁻⁶ cm/s
- Papp B→A at 90 min, 10 μM [2]: 0.1 ×10⁻⁶ cm/s

Structure (SMILES): CCn1c(CNC(=O)c2nc(Cl)cnc2N)[n+](CC)c2ccc(OCC(=O)NCCNC)cc21 [Example 2.02]
- IC50 [1]: 2 nM

Structure (SMILES): CCn1c(CNC(=O)c2nc(Cl)cnc2N)[n+](CC)c2ccc(OCC(=O)N3CCC(N)CC3)cc21 [Example 2.03]
- IC50 [1]: 1 nM

Structure (SMILES): CC[n+]1c(CNC(=O)c2nc(Cl)cnc2N)n(CCO)c2cc(OCC(=O)NCc3ccc(P(C)(C)=O)cc3)ccc21.O=C([O-])C(F)(F)F [Example 1.02]
- IC50 [1]: 10 nM
- Papp A→B at 90 min, 10 μM [2]: 0.6 ×10⁻⁶ cm/s
- Papp B→A at 90 min, 10 μM [2]: 0.3 ×10⁻⁶ cm/s

Structure (SMILES): CCn1c(CNC(=O)c2nc(Cl)cnc2N)[n+](CC)c2ccc(OCC(=O)NCCOCP(C)(C)=O)cc21.O=C([O-])C(F)(F)F [Example 2.04]
- IC50 [1]: 3 nM
- Papp A→B at 90 min, 10 μM [2]: < 0.7 ×10⁻⁶ cm/s
- Papp B→A at 90 min, 10 μM [2]: 0.4 ×10⁻⁶ cm/s

Structure (SMILES): CC[n+]1c(CNC(=O)c2nc(Cl)cnc2N)n(C[C@@H]2CCCO2)c2cc(OCC(=O)N3CC[S+]([O-])CC3)ccc21.O=C([O-])C(F)(F)F [Example 1.01]
- IC50 [1]: 10 nM
- Papp A→B at 90 min, 10 μM [2]: 0.8 ×10⁻⁶ cm/s
- Papp B→A at 90 min, 10 μM [2]: 0.3 ×10⁻⁶ cm/s

Structure (SMILES): CCn1c(CNC(=O)c2nc(Cl)cnc2N)[n+](CC2CCOCC2)c2ccc(OCC(=O)N(Cc3nc(C)ccc3[O-])C[C@H](C)O)cc21.O=C(O)C(F)(F)F.O=C(O)C(F)(F)F [Example 1.03]
- IC50 [1]: 8 nM
- Papp A→B at 90 min, 10 μM [2]: 0.4 ×10⁻⁶ cm/s
- Papp B→A at 90 min, 10 μM [2]: 0.1 ×10⁻⁶ cm/s

Structure (SMILES): CCn1c(CNC(=O)c2nc(Cl)cnc2N)[n+](CC)c2ccc(OCC(=O)NCCN(C)C)cc21.O=C[O-] [Example 2.06]
- IC50 [1]: 1 nM
- Papp A→B at 90 min, 10 μM [2]: < 1 ×10⁻⁶ cm/s
- Papp B→A at 90 min, 10 μM [2]: 0.2 ×10⁻⁶ cm/s

Structure (SMILES): CCn1c(CNC(=O)c2nc(Cl)cnc2N)[n+](CC)c2ccc(OCC(=O)NCCCN)cc21.O=C(O)C(F)(F)F.O=C([O-])C(F)(F)F [Example 2.01]
- Papp A→B at 90 min, 10 μM [2]: 0.2 ×10⁻⁶ cm/s
- Papp B→A at 90 min, 10 μM [2]: 0.5 ×10⁻⁶ cm/s
